Biological target: T1, recombinant human GST-SYK (Homo sapiens, UniProt P43405)
T1 construct: purchased Carna Biosciences 08-176
Test: Homogeneous Time-Resolved Fluorescence (HTRF) assay for the recombinant human Syk enzyme
Assay type: biochemical
Settings: HTRF assay, recombinant human GST-SYK; IC50 given as class symbols; read-out: rhSYK Activity
Method in brief: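 Phosphorylation of a biotinylated Syk substrate peptide (250 nM) was run for 45 min at room temperature with 25 μM ATP and 5 mM Mg. It followed a 10-min preincubation of GST-hSYK ([…]) with compound in 15 mM Tris-HCl pH 7.5, 2 mM DTT. Product was detected by time-resolved fluorescence using a europium anti-phosphotyrosine antibody plus SA-APC in EDTA-containing quench buffer.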

IC50, 1000 to 10000 nM:
CCCOC1CCCN(c2cc(-c3cc(C)cc(Nc4nccc(C(F)(F)F)n4)c3)ccn2)C1 (stereo not shown) [Example 15.79, N-{3-methyl-5-[2-(3-propoxypiperidin-1-yl)pyridin-4-yl]phenyl}-4-(trifluoromethyl)pyrimidin-2-amine]
Cc1cc(Nc2nccc(C(F)(F)F)n2)cc(-c2ccnc(N3CC4CNC(CO)C4C3)c2)c1 (stereo not shown) [Example 15.84, {5-[4-(3-methyl-5-{[4-(trifluoromethyl)pyrimidin-2-yl]amino}phenyl)pyridin-2-yl]octahydropyrrolo[3,4-c]pyrrol-1-yl}methanol]

IC50, < 100 nM:
CC(=O)NCCNc1cc(-c2cc(C)cc(Nc3nccc(C(F)(F)F)n3)c2)ccn1 [Example 15.54, N-(2-{[4-(3-methyl-5-{[4-(trifluoromethyl)pyrimidin-2-yl]amino}phenyl)pyridin-2-yl]amino}ethyl)acetamide]
Cc1cc(Nc2nccc(C(F)(F)F)n2)cc(-c2ccnc(N3CCCC3C(N)=O)c2)c1 (stereo not shown) [Example 15.55, 1-[4-(3-methyl-5-{[4-(trifluoromethyl)pyrimidin-2-yl]amino}phenyl)pyridin-2-yl] prolinamide]
Cc1cc(Nc2nccc(C(F)(F)F)n2)cc(-c2ccnc(NC3(CO)CC3)c2)c1 [Example 15.56, (1-{[4-(3-methyl-5-{[4-(trifluoromethyl)pyrimidin-2-yl]amino}phenyl)pyridin-2-yl]amino}cyclopropyl)methanol]
Cc1cc(Nc2nccc(C(F)(F)F)n2)cc(-c2ccnc(NCCC(N)=O)c2)c1 [Example 15.59, N~3~-[4-(3-methyl-5-{[4-(trifluoromethyl)pyrimidin-2-yl]amino}phenyl)pyridin-2-yl]-beta-alaninamide]
Cc1cc(Nc2nccc(C(F)(F)F)n2)cc(-c2ccnc(N[C@@H]3CCC(=O)NC3)c2)c1 [Example 15.66, (5R)-5-{[4-(3-methyl-5-{[4-(trifluoromethyl)pyrimidin-2-yl]amino}phenyl)pyridin-2-yl]amino}piperidin-2-one]
Cc1cc(Nc2nccc(C(F)(F)F)n2)cc(-c2ccnc(N[C@H]3CCC(=O)NC3)c2)c1 [Example 15.67, (5S)-5-{[4-(3-methyl-5-{[4-(trifluoromethyl)pyrimidin-2-yl]amino}phenyl)pyridin-2-yl]amino}piperidin-2-one]
Cc1cc(Nc2nccc(C(F)(F)F)n2)cc(-c2ccnc(N3CC(C)NC(C)C3)c2)c1 (stereo not shown) [Example 15.71, N-{3-[2-(3,5-dimethylpiperazin-1-yl)pyridin-4-yl]-5-methylphenyl}-4-(trifluoromethyl)pyrimidin-2-amine]
Cc1cc(Nc2nccc(C(F)(F)F)n2)cc(-c2ccnc(NCC(C)O)c2)c1 (stereo not shown) [Example 15.72, 1-{[4-(3-methyl-5-{[4-(trifluoromethyl)pyrimidin-2-yl]amino}phenyl)pyridin-2-yl]amino}propan-2-ol]
Cc1cc(Nc2nccc(C(F)(F)F)n2)cc(-c2ccnc(N3CCC[C@H]3C(N)=O)c2)c1 [Example 15.73, 1-[4-(3-methyl-5-{[4-(trifluoromethyl)pyrimidin-2-yl]amino}phenyl)pyridin-2-yl]-L-prolinamide]
Cc1cc(Nc2nccc(C(F)(F)F)n2)cc(-c2ccnc(NC3CNC(=O)C3)c2)c1 (stereo not shown) [Example 15.74, 4-{[4-(3-methyl-5-{[4-(trifluoromethyl)pyrimidin-2-yl]amino}phenyl)pyridin-2-yl]amino}pyrrolidin-2-one]
CCCN1CCCN(c2cc(-c3cc(C)cc(Nc4nccc(C(F)(F)F)n4)c3)ccn2)CC1 [Example 15.76, N-{3-methyl-5-[2-(4-propyl-1,4-diazepan-1-yl)pyridin-4-yl]phenyl}-4-(trifluoromethyl)pyrimidin-2-amine]
Cc1cc(Nc2nccc(C(F)(F)F)n2)cc(-c2ccnc(NCC3CCC(=O)N3)c2)c1 (stereo not shown) [Example 15.83, 5-({[4-(3-methyl-5-{[4-(trifluoromethyl)pyrimidin-2-yl]amino}phenyl)pyridin-2-yl]amino}methyl)pyrrolidin-2-one]
Cc1cc(Nc2nccc(C(F)(F)F)n2)cc(-c2ccnc(N3CC(C)NC(C)C3)c2)c1 (stereo not shown) [Example 15.85, N-{3-[2-(3,5-dimethylpiperazin-1-yl)pyridin-4-yl]-5-methylphenyl}-4-(trifluoromethyl)pyrimidin-2-amine]
Cc1cc(Nc2nccc(C(F)(F)F)n2)cc(-c2ccnc(N3CCC(C(=O)O)CC3)c2)c1 [Example 15.87, 1-[4-(3-methyl-5-{[4-(trifluoromethyl)pyrimidin-2-yl]amino}phenyl)pyridin-2-yl]piperidine-4-carboxylic acid]
Cc1cc(Nc2nccc(C(F)(F)F)n2)cc(-c2cncc(C(=O)NCC(O)CO)c2)c1 (stereo not shown) [Example 15.90, N-(2,3-dihydroxypropyl)-5-(3-methyl-5-{[4-(trifluoromethyl)pyrimidin-2-yl]amino}phenyl)pyridine-3-carboxamide]
Cc1cc(Nc2nccc(C(F)(F)F)n2)cc(-c2ccc(C(=O)NS(C)(=O)=O)nc2)c1 [Example 16.1, N-(methylsulfonyl)-5-(3-methyl-5-{[4-(trifluoromethyl)pyrimidin-2-yl]amino}phenyl)pyridine-2-carboxamide]

IC50, 100 to 1000 nM:
Cc1cc(Nc2nccc(C(F)(F)F)n2)cc(-c2ccnc(N(C)CCC3OCCO3)c2)c1 [Example 15.57, N-[3-(2-{[2-(1,3-dioxolan-2-yl)ethyl](methyl)amino}pyridin-4-yl)-5-methylphenyl]-4-(trifluoromethyl)pyrimidin-2-amine]
CNC(=O)C1CCN(c2cc(-c3cc(C)cc(Nc4nccc(C(F)(F)F)n4)c3)ccn2)CC1 [Example 15.58, N-methyl-1-[4-(3-methyl-5-{[4-(trifluoromethyl)pyrimidin-2-yl]amino}phenyl)pyridin-2-yl]piperidine-4-carboxamide]
Cc1cc(Nc2nccc(C(F)(F)F)n2)cc(-c2ccnc(NCC(C)(C)O)c2)c1 [Example 15.60, 2-methyl-1-{[4-(3-methyl-5-{[4-(trifluoromethyl)pyrimidin-2-yl]amino}phenyl)pyridin-2-yl]amino}propan-2-ol]
Cc1cc(Nc2nccc(C(F)(F)F)n2)cc(-c2ccnc(N3CCN(C)CC3)c2)c1 [Example 15.61, N-{3-methyl-5-[2-(4-methylpiperazin-1-yl)pyridin-4-yl]phenyl}-4-(trifluoromethyl)pyrimidin-2-amine]
Cc1cc(Nc2nccc(C(F)(F)F)n2)cc(-c2ccnc(NC3COC3)c2)c1 [Example 15.62, N-{3-methyl-5-[2-(oxetan-3-ylamino)pyridin-4-yl]phenyl}-4-(trifluoromethyl)pyrimidin-2-amine]
Cc1cc(Nc2nccc(C(F)(F)F)n2)cc(-c2ccnc(N3CCN(S(C)(=O)=O)CC3)c2)c1 [Example 15.63, N-(3-methyl-5-{2-[4-(methylsulfonyl)piperazin-1-yl]pyridin-4-yl}phenyl)-4-(trifluoromethyl)pyrimidin-2-amine]
CCN1CCN(c2cc(-c3cc(C)cc(Nc4nccc(C(F)(F)F)n4)c3)ccn2)CC1 [Example 15.64, N-{3-[2-(4-ethylpiperazin-1-yl)pyridin-4-yl]-5-methylphenyl}-4-(trifluoromethyl)pyrimidin-2-amine]
CC(=O)NCCN(C)c1cc(-c2cc(C)cc(Nc3nccc(C(F)(F)F)n3)c2)ccn1 [Example 15.65, N-(2-{methyl[4-(3-methyl-5-{[4-(trifluoromethyl)pyrimidin-2-yl]amino}phenyl)pyridin-2-yl]amino}ethyl)acetamide]
Cc1cc(Nc2nccc(C(F)(F)F)n2)cc(-c2ccnc(N3CCCC(F)(F)C3)c2)c1 [Example 15.68, N-{3-[2-(3,3-difluoropiperidin-1-yl)pyridin-4-yl]-5-methylphenyl}-4-(trifluoromethyl)pyrimidin-2-amine]
COCC1CCCN1c1cc(-c2cc(C)cc(Nc3nccc(C(F)(F)F)n3)c2)ccn1 (stereo not shown) [Example 15.69, N-(3-{2-[2-(methoxymethyl)pyrrolidin-1-yl]pyridin-4-yl}-5-methylphenyl)-4-(trifluoromethyl)pyrimidin-2-amine]
Cc1cc(Nc2nccc(C(F)(F)F)n2)cc(-c2ccnc(N3CCC(F)(F)CC3)c2)c1 [Example 15.70, N-{3-[2-(4,4-difluoropiperidin-1-yl)pyridin-4-yl]-5-methylphenyl}-4-(trifluoromethyl)pyrimidin-2-amine]
CC(=O)N1CCCN(c2cc(-c3cc(C)cc(Nc4nccc(C(F)(F)F)n4)c3)ccn2)CC1 [Example 15.75, N-{3-[2-(4-acetyl-1,4-diazepan-1-yl)pyridin-4-yl]-5-methylphenyl}-4-(trifluoromethyl)pyrimidin-2-amine]
COCC1CCN(c2cc(-c3cc(C)cc(Nc4nccc(C(F)(F)F)n4)c3)ccn2)C1 (stereo not shown) [Example 15.77, N-(3-{2-[3-(methoxymethyl)pyrrolidin-1-yl]pyridin-4-yl}-5-methylphenyl)-4-(trifluoromethyl)pyrimidin-2-amine]
CNC(=O)CCNc1cc(-c2cc(C)cc(Nc3nccc(C(F)(F)F)n3)c2)ccn1 [Example 15.78, N-methyl-N~3~-[4-(3-methyl-5-{[4-(trifluoromethyl)pyrimidin-2-yl]amino}phenyl)pyridin-2-yl]-beta-alaninamide]
CC(=O)NCCCNc1cc(-c2cc(C)cc(Nc3nccc(C(F)(F)F)n3)c2)ccn1 [Example 15.80, N-(3-{[4-(3-methyl-5-{[4-(trifluoromethyl)pyrimidin-2-yl]amino}phenyl)pyridin-2-yl]amino}propyl)acetamide]
Cc1cc(Nc2nccc(C(F)(F)F)n2)cc(-c2ccnc(NCC(=O)N(C)C)c2)c1 [Example 15.82, N,N-dimethyl-N~2~-[4-(3-methyl-5-{[4-(trifluoromethyl)pyrimidin-2-yl]amino}phenyl)pyridin-2-yl]glycinamide]

From patent US9376418B2, “Substituted pyridine spleen tyrosine kinase (SYK) inhibitors” (Merck Sharp & Dohme Corp., priority 2012, dated 2016)
